The values below come from patent US4567198A, “Ethanethioates and mercaptoamides and use thereof as analgesic and enkephalinase inhibitory compounds” (Roussel Uclaf, priority 1983, dated 1986).

Molecules are shown by their SMILES. pIC50: −log10 of the molar value.

In the assay the target is T1, Enkephalinase (Rattus norvegicus, UniProt P07861).
T1 construct: from tissue; host or cells: rat striatum, membrane fraction (20,000 g pellet)
T1 sequence (P07861 1-750): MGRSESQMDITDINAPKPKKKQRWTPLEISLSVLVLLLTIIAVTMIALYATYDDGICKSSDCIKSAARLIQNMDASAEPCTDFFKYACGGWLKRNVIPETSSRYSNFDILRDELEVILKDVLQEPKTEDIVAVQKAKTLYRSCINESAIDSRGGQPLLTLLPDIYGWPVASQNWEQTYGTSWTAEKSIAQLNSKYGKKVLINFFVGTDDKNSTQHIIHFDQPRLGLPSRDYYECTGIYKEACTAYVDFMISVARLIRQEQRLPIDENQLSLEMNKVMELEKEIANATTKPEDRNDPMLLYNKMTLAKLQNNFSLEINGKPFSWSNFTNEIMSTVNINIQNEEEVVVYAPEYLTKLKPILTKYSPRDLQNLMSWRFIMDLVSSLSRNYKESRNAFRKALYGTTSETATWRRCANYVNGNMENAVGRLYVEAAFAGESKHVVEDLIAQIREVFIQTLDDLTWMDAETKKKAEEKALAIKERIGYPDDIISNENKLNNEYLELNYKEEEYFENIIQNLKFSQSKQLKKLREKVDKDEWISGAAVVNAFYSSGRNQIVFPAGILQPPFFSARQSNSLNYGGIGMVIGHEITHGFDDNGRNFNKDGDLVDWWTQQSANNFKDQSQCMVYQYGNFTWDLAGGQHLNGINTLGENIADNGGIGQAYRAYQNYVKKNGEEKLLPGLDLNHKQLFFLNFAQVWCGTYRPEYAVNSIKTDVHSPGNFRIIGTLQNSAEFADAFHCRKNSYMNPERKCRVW
Put plainly: Inhibition of enkephalinase in rat striatum membrane fraction (hydrolysis of tritiated leucine-enkephaline). Particulars: striatum membrane fraction of rats; 20 nanomoles tritiated leucine-enkephaline, 1 mM puromycin, 25° C., 15 minutes, Tris pH 7.4; read-out: Enkephalinase inhibition CI50. In kind it is biochemical. As for the experimental part:
Enkephalinase activity was determined in a striatum membrane fraction of rats. The straitum was placed in ice and was homogenized in buffered 0.05M Tris with a pH of 7.4 (20 times the volume) and after a first centrifugation at 1000 g, the particular fraction obtained was subjected to two centrifugations for 10 minutes at 20,000 g. The culot was then suspended in buffered Tris and kept at 4° C. The amount of proteins was determined by the Comassie blue method.
After preincubation at 25° C. for 15 minutes, an aliquot of proteins was incubated at 25° C. for 15 minutes in the presence of 20 nanomoles of tritiated leucine-enkephaline (against the first amino acid) previously purified, of 1 mM of puromycin and the test product in buffered Tris. The hydrolysis reaction was stopped by addition of 0.2N hydrochloric acid and the icubate was subjected to a deproteinization by heating at 95° C. for 15 minutes. Under these conditions, the kinetic reaction was linear. The tritiated metabolites obtained by hydrolysis were separated from enkephaline by chromatography over a column of porapak Q and elution with buffered Tris whereby enkephaline was retained in the column and was released in the following ethanolic phase. The activity of the different products was expressed in 50% inhibiting concentration called CI50 in Table I.
In the case of `O=C(CCS)Nc1ccccc1` [N--phenyl-3-mercapto-propanamide, N-phenyl-3-mercapto-propanamide], the pIC50 is 4.40.

Consider `O=C(CS)Nc1ccc(Cl)cc1` [N--(4-chlorophenyl)-2-mercapto-acetamide, N-(4-chlorophenyl)-2-mercapto-acetamide], for which the pIC50 is 5.30.

In the case of `CC(=O)SCC(=O)Nc1nccs1` [Ethanethioate of S-[2-(2-thiazolylamino)-2-oxo-ethyl]], the pIC50 is 3.89.

For the compound `CC(=O)SCC(=O)Nc1ccc(Cl)cc1` [Ethanethioate of S-[2-(4-chlorophenylamino)-2-oxo-ethyl]], the pIC50 was 5.22.

Regarding `O=C(CS)Nc1ccccc1` [N--phenyl-2-mercapto-acetamide, N-phenyl-2-mercapto-acetamide], the pIC50 is 5.52.

Consider `O=C(CS)Nc1nccs1` [N--(2-thiazolyl)-2-mercapto-acetamide, N-(2-thiazolyl)-2-mercapto-acetamide], for which the pIC50 is 4.52.
